Where two headings read alike, the source gives them in different places.
Assays:
Type in all cases: in vivo
Colletotricum lagenarium = assay: Cucumber Anthracnose (COLLLA), foliar spray, percent disease control; settings: foliar
Procedure: The activity of the compounds as effective fungicides was determined by applying the compounds to plants and observing control of fungal disease. The compounds were formulated at 200 ppm in 10 vol. % acetone plus 90 vol. % Triton X water (deionized water 99.99 wt %+0.01 wt % Triton X100), giving a “formulated test compound.” In a few cases, compounds were formulated at 75 or 8.3 ppm rather than 200 ppm in 10 vol. % acetone plus 90 vol. % Triton X water (deionized water 99.99 wt. %+0.01 wt. % Triton X100), giving a “formulated test compound.” Formulated test compounds were applied to plants using a turn table sprayer fitted with two opposing air atomization nozzles which delivered approximately 1500 L/ha of spray volume. All plants were inoculated with spores of the fungus the day after treatment, then incubated in an environment conducive to disease development. Disease severity was evaluated 4 to 15 days later, depending on the disease and the speed of disease development. The following experiments were performed in the laboratory to determine the fungicidal efficacy of the compounds of the invention. Cucumber Anthracnose (causal agent Colletotricum lagenarium; Bayer code COLLLA): Cucumber plants (variety Bush Champion) were grown from seed in a soil-less peat-based potting mixture (Metromix) until the first true leaf was 20-80% expanded. Each pot contained 1 seedling. These plants were sprayed until wet with the formulated test compound. On the following day, the leaves were inoculated with an aqueous spore suspension of Colletotricum lagenarium and the plants were kept in high humidity for one day to permit spores to germinate and infect the leaf. The plants were then transferred to a growth chamber until disease developed on untreated control plants. […] The effectiveness of the test compounds at controlling disease when sprayed on leaves was determined by assessing the severity of disease on treated plants, then converting the severity to percent control based on the level of disease on untreated, inoculated plants. Data are the level (in percent) at which the given disease was controlled when the given compound was applied to the foliage of the plants at 200 ppm. In a few cases (noted in the table) the compound was applied to the plants at 75 ppm or 8.3 ppm.

Cochliobolus sativus = assay: Spot Blotch of Wheat (COCHSA), foliar spray, percent disease control
[1] = system: Pseudoperonospora cubensis; assay: Cucumber Downy Mildew (PSPECU), foliar spray, percent disease control; settings: foliar, read-out: PSPECU percent control
Procedure: The activity of the compounds as effective fungicides was determined by applying the compounds to plants and observing control of fungal disease. The compounds were formulated at 200 ppm in 10 vol. % acetone plus 90 vol. % Triton X water (deionized water 99.99 wt %+0.01 wt % Triton X100), giving a “formulated test compound.” In a few cases, compounds were formulated at 75 or 8.3 ppm rather than 200 ppm in 10 vol. % acetone plus 90 vol. % Triton X water (deionized water 99.99 wt. %+0.01 wt. % Triton X100), giving a “formulated test compound.” Formulated test compounds were applied to plants using a turn table sprayer fitted with two opposing air atomization nozzles which delivered approximately 1500 L/ha of spray volume. All plants were inoculated with spores of the fungus the day after treatment, then incubated in an environment conducive to disease development. Disease severity was evaluated 4 to 15 days later, depending on the disease and the speed of disease development. The following experiments were performed in the laboratory to determine the fungicidal efficacy of the compounds of the invention. Cucumber Downy Mildew (causal agent Pseudoperonospora cubensis; Bayer code […]): Cucumber plants (variety Bush Champion) were grown from seed in a soil-less peat-based potting mixture (Metromix) until the first true leaf was 20-80% expanded. Each pot contained 1 seedling. These plants were sprayed until wet with the formulated test compound. On the following day, the leaves were inoculated with an aqueous suspension of downy mildew sporangia and the plants were kept in high humidity for one day to permit sporangia to germinate and infect the leaf. The plants were then incubated in a growth chamber until disease developed on untreated control plants. […] The effectiveness of the test compounds at controlling disease when sprayed on leaves was determined by assessing the severity of disease on treated plants, then converting the severity to percent control based on the level of disease on untreated, inoculated plants. Data are the level (in percent) at which the given disease was controlled when the given compound was applied to the foliage of the plants at 200 ppm. In a few cases (noted in the table) the compound was applied to the plants at 75 ppm or 8.3 ppm.

[2] = Bipolaris sorokiniana, foliar; read-out: COCHSA percent control
[3] = Bipolaris sorokiniana, foliar, read-out: COCHSA percent control

Row | SMILES | pest or weed control at 200 µg/mL (Colletotricum lagenarium) [%] | pest or weed control at 200 µg/mL (Cochliobolus sativus; [2]) [%] | pest or weed control at 200 µg/mL [1] [%] | pest or weed control at 200 µg/mL (Cochliobolus sativus; [3]) [%]
1 | Oc1cccc(OCCNc2ncnc3nccnc23)c1 [Compound 81] | 0 to 49 | 0 to 49 | 80 to 100 | –
2 | FC(F)(F)c1ccnc(Oc2ccc(OCCNc3ncnc4nccnc34)cc2)c1 [Compound 83] | 80 to 100 | 0 to 49 | 80 to 100 | –
3 | N#Cc1ccnc(Oc2ccc(OCCNc3ncnc4nccnc34)cc2)c1 [Compound 85] | 0 to 49 | 0 to 49 | 80 to 100 | –
4 | FC(F)(F)c1ccnc(Oc2cccc(OCCNc3ncnc4nccnc34)c2)c1 [Compound 86] | 0 to 49 | 0 to 49 | 80 to 100 | –
5 | FC(F)(F)c1ccc(Oc2cccc(OCCNc3ncnc4nccnc34)c2)nc1 [Compound 87] | 0 to 49 | 0 to 49 | 80 to 100 | –
6 | N#Cc1ccnc(Oc2cccc(OCCNc3ncnc4nccnc34)c2)c1 [Compound 88] | 0 to 49 | 0 to 49 | 80 to 100 | –
7 | Fc1nc(C(F)(F)F)c(F)c(Oc2ccc(CCNc3ncnc4nccnc34)cc2)c1F [Compound 89] | 0 to 49 | 0 to 49 | 80 to 100 | –
8 | Fc1nc(F)c(F)c(Oc2ccc(CCNc3ncnc4nccnc34)cc2)c1F [Compound 94] | 50 to 79 | 0 to 49 | 50 to 79 | –
9 | O=Cc1cc(C(F)(F)F)ccc1Oc1ccc(CCNc2ncnc3nccnc23)cc1 [Compound 100] | 0 to 49 | 0 to 49 | 80 to 100 | –
10 | O=Cc1cc(Cl)cnc1Oc1ccc(CCNc2ncnc3nccnc23)cc1 [Compound 102] | 0 to 49 | 0 to 49 | 80 to 100 | –
11 | FC(F)(F)c1cc(Oc2ccc(CCNc3ncnc4nccnc34)cc2)nc(C(F)(F)F)c1 [Compound 115] | 0 to 49 | 0 to 49 | 80 to 100 | –
12 | N#Cc1c(Cl)cncc1Oc1ccc(CCNc2ncnc3ncc(Cl)nc23)cc1 [Compound 119] | 0 to 49 | 0 to 49 | 0 to 49 | –
13 | Fc1ccc(-c2ccc(CCNc3ncnc4nccnc34)cc2)cn1 [Compound 121, {2-[4-(6-Fluoropyridin-3-yl)-phenyl]-ethyl}-pteridin-4-yl-amine] | 0 to 49 | 0 to 49 | 80 to 100 | –
14 | FC(F)(F)c1ccc(Oc2ccc(CCNc3ncnc4ncc(Cl)nc34)cc2)nc1 [Compound 124] | 0 to 49 | 0 to 49 | 80 to 100 | –
15 | N#Cc1cc2ccccc2nc1Oc1ccc(CCNc2ncnc3nccnc23)cc1 [Compound 127] | 0 to 49 | 0 to 49 | 50 to 79 | –
16 | CC(C)(C)[Si](C)(C)Oc1ccc(CCNc2ncnc3nccnc23)cc1 [Compound 133, {2-[4-(tert-Butyldimethylsilanyloxy)-phenyl]-ethyl}-pteridin-4-yl-amine] | 0 to 49 | – | 80 to 100 | 0 to 49
17 | CC(C)(C)OC(=O)N(CCc1ccc(O[Si](C)(C)C(C)(C)C)cc1)c1ncnc2nccnc12 [Compound 134, {2-[4-(tert-Butyldimethylsilanyloxy)-phenyl]-ethyl}-pteridin-4-yl-carbamic acid tert-butyl ester] | 0 to 49 | – | 0 to 49 | 0 to 49
18 | COC(=O)c1ccnc(Oc2ccc(CCNc3ncnc4nccnc34)cc2)c1 [Compound 135] | 0 to 49 | 0 to 49 | 80 to 100 | –

Row | SMILES | pest or weed control at 200 µg/mL (Colletotricum lagenarium) [%] | pest or weed control at 200 µg/mL (Cochliobolus sativus; [2]) [%] | pest or weed control at 200 µg/mL [1] [%] | pest or weed control at 200 µg/mL (Cochliobolus sativus; [3]) [%]
19 | CCc1ccc(Oc2ccc(CCN(C(=O)OC(C)(C)C)c3ncnc4nccnc34)cc2)cc1 [Compound 139] | 0 to 49 | 0 to 49 | 0 to 49 | –
20 | Cc1c(CCNc2ncnc3nccnc23)ccc(Oc2cncc(Cl)c2C#N)c1C [Compound 147] | 0 to 49 | 0 to 49 | 80 to 100 | –
21 | Cc1c(CCNc2ncnc3nccnc23)ccc(Oc2c(F)cnc(C(F)(F)F)c2F)c1C [Compound 149] | 0 to 49 | 0 to 49 | 80 to 100 | –
22 | COc1cc(C)c(CCNc2ncnc3nccnc23)cc1C [Compound 151] | 0 to 49 | 0 to 49 | 80 to 100 | –
23 | COc1ccc(CCNc2ncnc3nccnc23)cc1Cl [Compound 158] | 0 to 49 | 0 to 49 | 0 to 49 | –
24 | Fc1cccc(Oc2ccc(OCCNc3ncnc4nccnc34)cc2)n1 [Compound 159] | 0 to 49 | 0 to 49 | 80 to 100 | –
25 | FC(F)(F)c1cccnc1Oc1ccc(OCCNc2ncnc3nccnc23)cc1 [Compound 160] | 0 to 49 | 0 to 49 | 80 to 100 | –
26 | Cc1nc2ncnc(NCCc3ccc(O)cc3)c2nc1C [Compound 161] | 0 to 49 | 0 to 49 | 0 to 49 | –
27 | COc1cc(C(F)(F)F)cc(Oc2ccc(CCNc3ncnc4nccnc34)cc2C)n1 [Compound 167] | 0 to 49 | 0 to 49 | 80 to 100 | –
28 | COc1cc(C(F)(F)F)cc(Oc2ccc(OCCNc3ncnc4nccnc34)cc2)n1 [Compound 168] | 0 to 49 | 0 to 49 | 0 to 49 | –
29 | COc1cc(C(F)(F)F)cc(Oc2ccc(CCNc3ncnc4nccnc34)cc2)n1 [Compound 171] | 0 to 49 | 0 to 49 | 80 to 100 | –
30 | CC(C)(C)c1cc[n+]([O-])c(Oc2ccc(CCNc3ncnc4nccnc34)cc2)c1 [Compound 172, {2-[4-(4-tert-Butyl-1-oxypyridin-2-yloxy)-phenyl]-ethyl}-pteridin-4-ylamine] | 0 to 49 | 0 to 49 | 80 to 100 | –
31 | CC(C)OC(=O)c1ccnc(Oc2ccc(CCNc3ncnc4nccnc34)cc2)c1 [Compound 173] | 0 to 49 | 0 to 49 | 80 to 100 | –
32 | Cc1cc(CCNc2ncnc3nccnc23)ccc1O [Compound 174] | 0 to 49 | 0 to 49 | 0 to 49 | –
33 | Cc1c(O)ccc(CCNc2ncnc3nccnc23)c1C [Compound 175] | 0 to 49 | 0 to 49 | 0 to 49 | –
34 | COc1ccc(CCNc2ncnc3nccnc23)cc1F [Compound 176] | 0 to 49 | 0 to 49 | 0 to 49 | –
35 | Oc1ccc(CCNc2ncnc3nccnc23)cc1F [Compound 177] | 0 to 49 | 0 to 49 | 0 to 49 | –
